Experimental data: US20060069132A1, “Azolecarboxamide herbicides” (priority 2004, published 2006)

How the values were obtained:
lambsquarters = assay: Test B pre-/postemergence herbicide test; assay type: in vivo, Chenopodium album; conditions: for Plant response rating (0 to 100 scale), Lambsquarters: 0 is no effect, 100 is complete control, preemergence
Procedure, shortened: (§1)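 Herbicidal effect was judged by eye on a 0–100 scale after plants stood 13 to 15 days in the greenhouse following pre- or postemergence treatment with surfactant-containing formulations.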

cocklebur = assay: Test B pre-/postemergence herbicide test; assay type: in vivo, Xanthium strumarium; conditions: for Plant response rating (0 to 100 scale), Cocklebur: 0 is no effect, 100 is complete control, preemergence
Procedure, shortened: (§2)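 Flooded paddy rice and barnyardgrass were treated at the 2-leaf stage; upland plantings received compound either on sown seed or on 1- to 4-leaf seedlings. All were kept 13–15 days in a greenhouse and scored visually, 0–100, relative to untreated plants.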

blackgrass = assay: Test B postemergence herbicide test; assay type: in vivo, Alopecurus myosuroides
Procedure, shortened: (§3)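 After treating 2-leaf paddy plants or 2–18 cm postemergence plants (1 to 4 leaves) with formulated chemical, researchers kept them in a greenhouse for 13–15 days. Effects were judged visually versus controls: 0 indicates none, 100 total control.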

barnyardgrass [1] = assay: Test B pre-/postemergence herbicide test; assay type: in vivo, Echinochloa crus-galli; conditions: for Plant response rating (0 to 100 scale), Barnyardgrass: 0 is no effect, 100 is complete control, preemergence; for Barnyardgrass plant response rating: scale 0 (no effect) to 100 (complete control)
Procedure, shortened: as §2

barnyardgrass [2] = assay: Test B flooded paddy test; assay type: in vivo, Echinochloa crus-galli; conditions: 1000 g ai/ha, scale 0 to 100 (0 no effect, 100 complete control)
Procedure, shortened: as §3

Surinam grass = assay: Test B pre-/postemergence herbicide test; assay type: in vivo, Urochloa decumbens; conditions: for Plant response rating (0 to 100 scale), Surinam Grass: 0 is no effect, 100 is complete control, preemergence
Procedure, shortened: as §1

[3] = system: small flower umbrella sedge; assay: Test B flooded paddy test; assay type: in vivo, Cyperus difformis; conditions: 1000 g ai/ha, scale 0 to 100 (0 no effect, 100 complete control)
Procedure, shortened: as §3

morningglory = assay: Test B pre-/postemergence herbicide test; assay type: in vivo, Ipomoea coccinea; conditions: for Plant response rating (0 to 100 scale), Morningglory: 0 is no effect, 100 is complete control, preemergence
Procedure, shortened: as §2

rice = assay: Test B flooded paddy test; assay type: in vivo, Oryza sativa; conditions: 1000 g ai/ha, scale 0 to 100 (0 no effect, 100 complete control)
Procedure, shortened: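 Treated at 2-leaf (paddy) or 1–4-leaf, 2–18 cm (postemergence); greenhouse 13–15 d; visual score vs control, 0 none to 100 complete control; dash = not tested.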

corn = assay: Test B pre-/postemergence herbicide test; assay type: in vivo, Zea mays; conditions: for Plant response rating (0 to 100 scale), Corn: 0 is no effect, 100 is complete control, preemergence
Procedure, shortened: as §1

wild oat = assay: Test B postemergence herbicide test; assay type: in vivo, Avena fatua
Procedure, shortened: as §3

velvetleaf = assay: Test B pre-/postemergence herbicide test; assay type: in vivo, Abutilon theophrasti; conditions: for Plant response rating (0 to 100 scale), Velvetleaf: 0 is no effect, 100 is complete control, preemergence
Procedure, shortened: as §1

pigweed = assay: Test B pre-/postemergence herbicide test; assay type: in vivo, Amaranthus retroflexus; conditions: for Plant response rating (0 to 100 scale), Pigweed: 0 is no effect, 100 is complete control, preemergence
Procedure, shortened: as §1

giant foxtail = assay: Test B pre-/postemergence herbicide test; assay type: in vivo, Setaria faberi; conditions: for Plant response rating (0 to 100 scale), Foxtail, Giant: 0 is no effect, 100 is complete control, preemergence
Procedure, shortened: as §1

ducksalad = assay: Test B flooded paddy test; assay type: in vivo, Heteranthera limosa; conditions: 1000 g ai/ha, scale 0 to 100 (0 no effect, 100 complete control)
Procedure, shortened: as §3

wheat = assay: Test B postemergence herbicide test; assay type: in vivo, Triticum aestivum; design: key to Wheat plant response rating: 0 = no effect, 100 = complete control
Procedure, shortened: as §3

large crabgrass = assay: Test B pre-/postemergence herbicide test; assay type: in vivo, Digitaria sanguinalis; conditions: for Plant response rating (0 to 100 scale), Crabgrass, Large: 0 is no effect, 100 is complete control, preemergence
Procedure, shortened: as §1

[4] = 125 g ai/ha, visual rating, scale 0 (no effect) to 100 (complete control), postemergence
[5] = Postemergence, 500 g ai/ha, scale 0 (no effect) to 100 (complete control)
[6] = 500 g ai/ha, scale 0 to 100, 0 no effect, 100 complete control, preemergence
[7] = postemergence, 125 g ai/ha, scale 0 to 100

CCN(C)C(=O)c1ccc(F)c(NC(=O)c2nn(C(C)C)nc2C)c1 [Compound 403]
Plant response rating (0 to 100 scale), Lambsquarters (lambsquarters; 125 g ai/ha): 0
Lambsquarters plant response rating (lambsquarters; [4]): 0
Lambsquarters plant response rating (lambsquarters; [5]): 10
Plant response rating (0 to 100 scale), Cocklebur (cocklebur; 125 g ai/ha): 0
Cocklebur plant response rating (cocklebur; [4]): 0
Cocklebur plant response rating (cocklebur; [5]): 0
Blackgrass plant response rating (blackgrass; [4]): 0
Blackgrass plant response rating (blackgrass; [5]): 0
Plant response rating (0 to 100 scale), Barnyardgrass (barnyardgrass [1]; 125 g ai/ha): 0
Barnyardgrass plant response rating (barnyardgrass [1]; 125 g ai/ha, visual rating, postemergence): 0
Barnyardgrass plant response rating (barnyardgrass [1]; Postemergence, 500 g ai/ha): 0
Barnyardgrass plant response rating (barnyardgrass [2]): 0
Plant response rating (0 to 100 scale), Surinam Grass (Surinam grass; 125 g ai/ha): 0
Surinam Grass plant response rating (Surinam grass; [4]): 0
Surinam Grass plant response rating (Surinam grass; [5]): 10
Sedge, Umbrella plant response rating [3]: 10
Plant response rating (0 to 100 scale), Morningglory (morningglory; 125 g ai/ha): 0
Morningglory plant response rating (morningglory; [4]): 0
Morningglory plant response rating (morningglory; [5]): 0
Rice plant response rating (rice): 0
Plant response rating (0 to 100 scale), Corn (corn; 125 g ai/ha): 0
Corn plant response rating (corn; [4]): 0
Corn plant response rating (corn; [5]): 0
Oat, Wild plant response rating (wild oat; [4]): 0
Oat, Wild plant response rating (wild oat; [5]): 0
Plant response rating (0 to 100 scale), Velvetleaf (velvetleaf; 125 g ai/ha): 0
Velvetleaf plant response rating (velvetleaf; [4]): 0
Velvetleaf plant response rating (velvetleaf; [5]): 10
Plant response rating (0 to 100 scale), Pigweed (pigweed; 125 g ai/ha): 0
Pigweed plant response rating (pigweed; [4]): 0
Pigweed plant response rating (pigweed; [5]): 0
Plant response rating (0 to 100 scale), Foxtail, Giant (giant foxtail; 125 g ai/ha): 0
Foxtail, Giant plant response rating (giant foxtail; [4]): 0
Foxtail, Giant plant response rating (giant foxtail; [5]): 0
Ducksalad plant response rating (ducksalad): 0
Wheat plant response rating (wheat; [4]): 0
Wheat plant response rating (wheat; [6]): 0
Wheat plant response rating (wheat; [5]): 0
Plant response rating (0 to 100 scale), Crabgrass, Large (large crabgrass; 125 g ai/ha): 0
Crabgrass, Large plant response rating (large crabgrass; [4]): 0
Crabgrass, Large plant response rating (large crabgrass; [5]): 0

CCOC(=O)c1cncc(NC(=O)c2nn(C(C)(C)C)nc2C)c1 [Compound 422]
Plant response rating (0 to 100 scale), Lambsquarters (lambsquarters; 125 g ai/ha): 0
Lambsquarters plant response rating (lambsquarters; [5]): 0
Lambsquarters plant response rating (lambsquarters; [7]): 0
Plant response rating (0 to 100 scale), Cocklebur (cocklebur; 125 g ai/ha): 0
Cocklebur plant response rating (cocklebur; [5]): 0
Cocklebur plant response rating (cocklebur; [7]): 0
Blackgrass plant response rating (blackgrass; [5]): 20
Blackgrass plant response rating (blackgrass; [7]): 20
Plant response rating (0 to 100 scale), Barnyardgrass (barnyardgrass [1]; 125 g ai/ha): 0
Barnyardgrass plant response rating (barnyardgrass [1]; Postemergence, 125 g ai/ha): 0
Barnyardgrass plant response rating (barnyardgrass [1]; Postemergence, 500 g ai/ha): 0
Barnyardgrass plant response rating (barnyardgrass [2]): 30
Plant response rating (0 to 100 scale), Surinam Grass (Surinam grass; 125 g ai/ha): 0
Surinam Grass plant response rating (Surinam grass; [5]): 0
Surinam Grass plant response rating (Surinam grass; [7]): 0
Sedge, Umbrella plant response rating [3]: 70
Plant response rating (0 to 100 scale), Morningglory (morningglory; 125 g ai/ha): 0
Morningglory plant response rating (morningglory; [5]): 0
Morningglory plant response rating (morningglory; [7]): 0
Rice plant response rating (rice): 30
Plant response rating (0 to 100 scale), Corn (corn; 125 g ai/ha): 0
Corn plant response rating (corn; [5]): 0
Corn plant response rating (corn; [7]): 0
Oat, Wild plant response rating (wild oat; [5]): 0
Oat, Wild plant response rating (wild oat; [7]): 0
Plant response rating (0 to 100 scale), Velvetleaf (velvetleaf; 125 g ai/ha): 0
Velvetleaf plant response rating (velvetleaf; [5]): 0
Velvetleaf plant response rating (velvetleaf; [7]): 0
Plant response rating (0 to 100 scale), Pigweed (pigweed; 125 g ai/ha): 0
Pigweed plant response rating (pigweed; [5]): 0
Pigweed plant response rating (pigweed; [7]): 0
Plant response rating (0 to 100 scale), Foxtail, Giant (giant foxtail; 125 g ai/ha): 0
Foxtail, Giant plant response rating (giant foxtail; [5]): 0
Foxtail, Giant plant response rating (giant foxtail; [7]): 0
Ducksalad plant response rating (ducksalad): 20
Wheat plant response rating (wheat; [6]): 0
Wheat plant response rating (wheat; [5]): 0
Wheat plant response rating (wheat; [7]): 0
Plant response rating (0 to 100 scale), Crabgrass, Large (large crabgrass; 125 g ai/ha): 0
Crabgrass, Large plant response rating (large crabgrass; [5]): 0
Crabgrass, Large plant response rating (large crabgrass; [7]): 0
